SMILES strings stand for the structures. Values after ≈ are worked out from the molar mass of the structure shown. Some results are limits rather than exact numbers.

Test [1] has as its system Staphylococcus aureus. The experiment in a line: Antibacterial activity against Staphylococcus aureus SH1000 cultured in iron rich media assessed as reduction in bacterial cell growth. The test is classed as functional.
The test system of test [2] is Staphylococcus aureus. The experiment in a line: Antibacterial activity against Staphylococcus aureus SH1000 cultured in iron depleted media assessed as reduction in bacterial cell growth. The test is classed as functional.
Test [3] deals with Candida albicans. Briefly: Antifungal activity against Candida albicans as reduction in fungal growth. The test is classed as functional, organism-based.
The nature of test [4]: Inhibition of Saccharomyces cerevisiae 20S proteosome.
A further test concerns NCI-H460. The experiment in a line: Cytotoxicity against human NCI-H460 cells assessed as reduction in cell viability. In kind it is functional, cell-based.
A further test deals with HCT-116. The experiment in a line: Cytotoxicity against human HCT-116 cells assessed as reduction in cell viability. In kind it is functional, cell-based.
Test [5] is described as follows: Inhibition of sodium channel (unknown origin). Also on record: species or system Homo sapiens.
Test [6] relates to A549. Briefly: Antiproliferative activity against human A549 cells assessed as cell growth inhibition measured for 72 hrs. Conditions: A549, 72 h. The test is classed as functional, cell-based.
The test system of another test is SK-OV-3. The experiment in a line: Antiproliferative activity against human SK-OV-3 cells assessed as cell growth inhibition measured for 72 hrs. The test is classed as functional, cell-based. Conditions: SK-OV-3, 72 h.
A short description of test [7]: Activation of hypoxia-induced HIF-1 in human T47D cells. In kind it is cell-based.
Test [8] concerns P388. Briefly: Antiproliferative activity against mouse P388 cells assessed as cell growth inhibition. In kind it is functional, cell-based.
Another test has as its system MCF7. Briefly: Antiproliferative activity against human MCF7 cells assessed as cell viability by WST-8 colorimetric assay. The test is classed as functional, cell-based. A general note: Tetrazolium assays rely on reduction of a dye to a coloured formazan, in cell work by metabolically active cells.
Test [9] deals with P388. Briefly: Antiproliferative activity against mouse P388 cells assessed as cell viability by WST-8 colorimetric assay. In kind it is functional, cell-based.
Test [10] deals with A549. Briefly: Antiproliferative activity against human A549 cells assessed as cell viability by WST-8 colorimetric assay. In kind it is functional, cell-based.
Test [11] concerns Streptococcus. The experiment in a line: Antibiofilm activity against Streptococcus assessed as inhibition of biofilm maturation. In kind it is functional, organism-based.
For another test, the system named is Leishmania donovani. Briefly: Antileishmanial activity against Leishmania donovani assessed as parasite growth inhibition. The test is classed as functional, organism-based.
The test system of a further test is MAXF401 cell line. Briefly: Cytotoxicity against human NCI-MAXF401 cells assessed as reduction in cell viability. In kind it is functional, cell-based.
Test [12] can be described thus: Cytotoxicity against human bladder carcinoma cell assessed as reduction in cell viability. In kind it is functional, cell-based.
The subject of another test is OVCAR-3. The experiment in a line: Cytotoxicity against human OVCAR-3 cells assessed as reduction in cell viability. In kind it is functional, cell-based.
In test [13] the test system is Streptococcus. The experiment in a line: Antibacterial activity against Streptococcus. In kind it is functional.
Test [14] concerns Candida albicans. The experiment in a line: Antifungal activity against Candida albicans. The test is classed as functional.
Test [15] has as its system Plasmodium falciparum. The experiment in a line: Antimalarial activity against Plasmodium falciparum W2 assessed as reduction in parasite growth. The test is classed as functional.
Test [16] concerns Plasmodium falciparum. The experiment in a line: Antimalarial activity against Plasmodium falciparum D6 assessed as reduction in parasite growth. In kind it is functional.

What is called MIC is the lowest concentration that inhibits growth of the organism. `CCCC(=O)[C@@H](C)C[C@@H](C)C[C@@H](C)CC[C@H](O)C[C@H](O)[C@H](CC(C)C)[C@H](O)c1cc(O)cc(O)c1`: the MIC in the test with Staphylococcus aureus [1] and with Staphylococcus aureus [2] was 63 µM (≈ 31.2 µg/mL) each time.
One may read the IC50 as the concentration needed to halve the response being measured. In turn, `CC(=O)O[C@@H]1c2nc(cs2)C(=O)O[C@@H](CCCC(C)(Cl)Cl)[C@H](C)C(=O)O[C@@H](C(C)(C)O)c2nc(cs2)C(=O)OC1(C)C` [HECTOCHLORIN] returned a 50% inhibitory concentration (IC50) with Candida albicans [3] of 20 nM.
A word on the EC50: it is the concentration that produces a half-maximal response. With `CCCCCC(=O)N[C@H](C(=O)N[C@@H](CCS(C)(=O)=O)C(=O)N[C@@H](CC(C)C)C(=O)[C@@]1(C)CO1)C(C)C`, inhibition in test [4] was half-maximal at 2.6 nM (IC50). Further, the concentration giving a half-maximal response (EC50) worked out at 6 nM in the test with NCI-H460 and 43 nM in the test with HCT-116.
As to `CCC(=O)[C@@H](C)C[C@@H](C)C[C@@H](C)CC[C@H](O)CC(=O)[C@H](CC(C)C)[C@H](O)c1cc(O)cc(O)c1`, the minimum inhibitory concentration (MIC) with Staphylococcus aureus [1] and in the test on Staphylococcus aureus [2] was 63 µM (≈ 30.2 µg/mL) throughout.
In turn, `CCCCCC(=O)N[C@H](C(=O)N[C@@H](CC[S+](C)[O-])C(=O)N[C@@H](CC(C)C)C(=O)[C@@]1(C)CO1)C(C)C` (some centres not stated) showed an IC50 in test [4] of 2.5 nM. Further, the results for the EC50 with NCI-H460 and in the test with HCT-116 were 9 nM and 19 nM, respectively.
`CO/C(=C/C(=O)N1C(=O)C=C[C@@H]1C)CCNC(=O)CC/C=C/C(C)CC/C(=C/Cl)CCCC#CBr` (some centres not stated) yielded an IC50 in test [5] of 5000 nM.
With `CC(=O)[C@@H](C)C[C@@H](C)C[C@@H](C)CC[C@H](O)C[C@H](O)[C@H](CC(C)C)[C@H](O)c1cc(O)cc(O)c1`, the MIC with Staphylococcus aureus [1] and in the test on Staphylococcus aureus [2] was 500 µM (≈ 233 µg/mL) throughout.
Consider `CC(=O)O[C@H]1C(=O)[C@@]2(C)[C@H]([C@H](OC(=O)c3ccccc3)[C@]3(O)C[C@H](OC(=O)[C@H](O)[C@@H](NC(=O)c4ccccc4)c4ccccc4)C(C)=C1C3(C)C)[C@]1(OC(C)=O)CO[C@@H]1C[C@@H]2O` [PACLITAXEL], for which the 50% inhibitory concentration (IC50) with A549 [6] was 3.8 nM; in the test with SK-OV-3, 31.3 nM.
Molecule `C#CCCC/C(=C\Cl)CCC(C)/C=C/CCC(=O)NCC/C(=C\C(=O)N1C(=O)C=C[C@@H]1C)OC` (some centres not stated) displayed a concentration for half-maximal inhibition (IC50) in test [5] of 5000 nM.
Take `CCC(=O)[C@@H](C)C[C@@H](C)C[C@@H](C)CC[C@H](O)C[C@H](O)[C@@H](CC(C)C)[C@H](O)c1cc(O)cc(O)c1`: the MIC in the test with Staphylococcus aureus [1] and in the test on Staphylococcus aureus [2] was 125 µM (≈ 60.1 µg/mL) each time.
Take `C=C[C@@H]1CSC(C[C@@H](C)[C@@H](C)C[C@H](C)CCN(C)C(=O)[C@H](C)CC)=N1`: the IC50 in [7] came out at 5.6 nM.
In the case of `C=C/C=C\[C@H](C)[C@H](OC(N)=O)[C@@H](C)[C@H](O)[C@@H](C)C/C(C)=C\[C@H](C)[C@@H](O)[C@@H](C)/C=C\[C@@H](O)C[C@@H]1OC(=O)[C@H](C)[C@@H](O)[C@H]1C` [DISERMOLIDE], the IC50 was 0.5 µg/mL (≈ 0.842 µM) in the test with P388 [8], 1.8 nM in the test on A549 [6] and 6.1 nM in the test on SK-OV-3.
Turning to `CCC(=O)[C@@H](C)C[C@@H](C)C[C@@H](C)CC[C@H](O)C[C@H](O)[C@H](CC(C)C)[C@H](O)c1cc(OC)cc(OC)c1`, the MIC in the test on Staphylococcus aureus [1] and with Staphylococcus aureus [2] was above 500 µM each time.
As to `CCC[C@H]1C[C@@H](OC)C[C@H](C)C[C@@H]2C[C@@H](OC(=O)/C=C\CCc3coc(/C=C\CNC(=O)OC)n3)C[C@H](CC(=O)O1)O2`, the concentration for half-maximal inhibition (IC50) in the test with MCF7 came out at 33 nM; in the test with P388 [9] it was 0.72 nM; in the test on A549 [10], 43.9 nM.
Take `C[C@H]1/C=C/[C@H]2OC(C)(C)O[C@H]2C(=O)O[C@H](c2cccc(CCCCC(=O)O)c2)[C@@H](C)/C=C/C1`: the IC50 with Streptococcus [11] is 63000 nM.
Consider `CC[C@H](O)C[C@H](O)[C@H](CC(C)C)[C@H](O)c1cc(O)cc(O)c1`, for which the minimal inhibitory concentration (MIC) in the test on Staphylococcus aureus [1] and in the test on Staphylococcus aureus [2] was above 500 µM in each case.
On to `C=C/C=C\[C@H](C)[C@H](OC(N)=O)[C@@H](C)[C@H](O)[C@@H](C)C/C(C)=C\[C@H](C)[C@@H](O)[C@@H](C)/C=C\[C@@H](O)C[C@@H]1OC(=O)C(C)=C[C@H]1C`, for which the half-maximal inhibitory concentration (IC50) in the test with A549 [6] worked out at 1.8 nM; in the test on SK-OV-3, 6.1 nM.
In the case of `CC(C)=CCC[C@H](C)c1ccc(C)cc1OC(=O)c1ccncc1`, in the test on Leishmania donovani, the IC50 amounted to 600 nM.
As to `CC(C)C[C@H]([C@H](O)c1cc(O)cc(O)c1)[C@@H](O)C[C@@H](O)CC[C@H](C)C[C@H](C)C[C@H](C)CO`, the minimum inhibitory concentration (MIC) in the test with Staphylococcus aureus [1] and in the test with Staphylococcus aureus [2] was 500 µM (≈ 227 µg/mL) in each case.
As to `CC1=CC[C@H]2[C@](C)(CO)CCC[C@]2(C)[C@H]1C[C@@]12O[C@@H]1C(=O)C(CO)=C[C@H]2O` [EPOXYPHOLAMIN A], the IC50 came out at 0.01 µg/mL (≈ 0.0266 µM) with MAXF401 cell line, 0.017 µg/mL (≈ 0.0452 µM) in [12] and 0.017 µg/mL (≈ 0.0452 µM) in the test with OVCAR-3.
Regarding `CCC(=O)[C@@H](C)C[C@@H](C)C[C@@H](C)CC[C@H](O)C[C@H](O)[C@H](CC(C)C)[C@H](O)c1cc(O)cc(O)c1`, the MIC in the test with Staphylococcus aureus [1] and with Staphylococcus aureus [2] was 125 µM (≈ 60.1 µg/mL) throughout.
Consider `CCC(=O)CCCCCCC[C@H](O)C[C@H](O)[C@H](CC(C)C)[C@H](O)c1cc(O)cc(O)c1`, for which the MIC is above 500 µM in the test with Staphylococcus aureus [1] and 250 µM (≈ 110 µg/mL) with Staphylococcus aureus [2].
Regarding `C[C@H]1/C=C/[C@H]2OC(C)(C)O[C@H]2C(=O)O[C@H](CCCCCCCC(=O)O)[C@@H](C)CCC1`, the IC50 in the test on Streptococcus [11] amounted to 44000 nM. In addition, in the test with Streptococcus [13], it took 250 µM (≈ 106 µg/mL) to inhibit growth (MIC).
In the test on Candida albicans [14], `CO[C@H]1[S+]([O-])/C2=C\C(=O)[C@](C)(O[C@H]3CC[C@H](N(C)C)[C@@H](C)O3)[C@H](O)CC/C(C)=C\[C@@H]3[C@@H](C)[C@](C)(Cl)[C@@H](C[C@H]3O[C@H]3CC[C@H](N(C)C)[C@@H](C)O3)OC(=O)[C@@H]3CSC(=N3)[C@]1(C)N2` (some centres not stated) gave an MIC of 16 µg/mL (≈ 17.7 µM).
Turning to `CCCCCCOC(=O)C[C@H]1C[C@H](OC(=O)/C=C\CCc2coc(/C=C\CNC(=O)OC)n2)C[C@@H](/C=C/c2ccccc2)O1`, the half-maximal inhibitory concentration (IC50) with A549 [10] amounted to 1.6 nM.
For the molecule `CCCCCCCCCC[C@H](O)C[C@H](O)[C@H](CC(C)C)[C@H](O)c1cc(O)cc(O)c1`, the MIC in the test with Staphylococcus aureus [1] and in the test with Staphylococcus aureus [2] was 8 µM (≈ 3.4 µg/mL) each time.
Regarding `C=CCCC/C(=C\Cl)CCC(C)/C=C/CCC(=O)NCC/C(=C\C(=O)N1C(=O)C=C[C@@H]1C)OC` (some centres not stated), 5000 nM corresponded to half-maximal inhibition in test [5] (IC50).
For the molecule `CC(C)=CCC[C@H](C)c1ccc(C)cc1O`, the MIC was 3.6 µg/mL (≈ 16.5 µM) in the test with Plasmodium falciparum [15] and 1.8 µg/mL (≈ 8.24 µM) in the test with Plasmodium falciparum [16].
